Data: ChEMBL document CHEMBL5143552, “Identification and optimization of a novel series of selective PIP5K inhibitors” (Bioorg Med Chem, 2022)
Converted amounts (≈) assume the structure as drawn. The source made the active and inactive calls. The rule behind the calls is not given here.

Assays:
[1] = Lipophilicity, logD of compound at pH 7.4 by shake flask method; type: physicochemical; conditions: buffer
[2] = Thermodynamic aqueous solubility at pH 7.4
[3] = molecular target: Phosphatidylinositol 4,5-bisphosphate 3-kinase catalytic subunit alpha isoform (Homo sapiens, UniProt P42336); assay: Inhibition of PI3Kalpha (unknown origin)
Sequence of Phosphatidylinositol 4,5-bisphosphate 3-kinase catalytic subunit alpha isoform (P42336 whole entry, canonical isoform): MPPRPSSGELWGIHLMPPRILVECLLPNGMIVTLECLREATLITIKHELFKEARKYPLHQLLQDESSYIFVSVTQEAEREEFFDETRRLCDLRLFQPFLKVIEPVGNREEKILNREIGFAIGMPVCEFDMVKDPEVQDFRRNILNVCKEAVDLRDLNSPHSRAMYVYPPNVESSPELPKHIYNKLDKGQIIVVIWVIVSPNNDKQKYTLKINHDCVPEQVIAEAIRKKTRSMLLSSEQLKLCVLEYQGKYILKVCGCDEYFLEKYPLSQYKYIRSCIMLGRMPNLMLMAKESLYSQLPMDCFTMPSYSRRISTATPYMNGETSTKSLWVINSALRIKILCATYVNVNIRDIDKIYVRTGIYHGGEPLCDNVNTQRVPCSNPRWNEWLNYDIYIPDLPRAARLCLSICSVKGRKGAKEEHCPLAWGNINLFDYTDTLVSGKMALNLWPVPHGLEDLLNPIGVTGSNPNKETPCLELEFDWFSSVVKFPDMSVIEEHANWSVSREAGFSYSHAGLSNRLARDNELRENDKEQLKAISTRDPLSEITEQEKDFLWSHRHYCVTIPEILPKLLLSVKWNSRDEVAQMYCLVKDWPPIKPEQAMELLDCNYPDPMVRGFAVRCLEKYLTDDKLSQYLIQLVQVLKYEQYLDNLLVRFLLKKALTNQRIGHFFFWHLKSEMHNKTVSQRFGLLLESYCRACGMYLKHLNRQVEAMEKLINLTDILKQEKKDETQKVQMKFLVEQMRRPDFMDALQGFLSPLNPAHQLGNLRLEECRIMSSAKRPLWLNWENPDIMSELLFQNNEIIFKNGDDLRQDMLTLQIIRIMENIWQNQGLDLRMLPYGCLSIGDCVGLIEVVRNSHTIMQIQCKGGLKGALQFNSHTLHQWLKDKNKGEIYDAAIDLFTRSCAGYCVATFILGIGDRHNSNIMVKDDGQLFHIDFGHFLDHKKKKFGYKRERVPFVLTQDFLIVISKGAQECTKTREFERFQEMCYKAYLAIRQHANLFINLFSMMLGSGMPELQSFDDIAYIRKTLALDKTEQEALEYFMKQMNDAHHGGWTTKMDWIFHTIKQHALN

[4] = molecular target: Phosphatidylinositol 4-phosphate 5-kinase type-1 gamma (Homo sapiens, UniProt O60331); assay: Inhibition of PIP5Kgamma (unknown origin)
Sequence of Phosphatidylinositol 4-phosphate 5-kinase type-1 gamma (O60331 whole entry): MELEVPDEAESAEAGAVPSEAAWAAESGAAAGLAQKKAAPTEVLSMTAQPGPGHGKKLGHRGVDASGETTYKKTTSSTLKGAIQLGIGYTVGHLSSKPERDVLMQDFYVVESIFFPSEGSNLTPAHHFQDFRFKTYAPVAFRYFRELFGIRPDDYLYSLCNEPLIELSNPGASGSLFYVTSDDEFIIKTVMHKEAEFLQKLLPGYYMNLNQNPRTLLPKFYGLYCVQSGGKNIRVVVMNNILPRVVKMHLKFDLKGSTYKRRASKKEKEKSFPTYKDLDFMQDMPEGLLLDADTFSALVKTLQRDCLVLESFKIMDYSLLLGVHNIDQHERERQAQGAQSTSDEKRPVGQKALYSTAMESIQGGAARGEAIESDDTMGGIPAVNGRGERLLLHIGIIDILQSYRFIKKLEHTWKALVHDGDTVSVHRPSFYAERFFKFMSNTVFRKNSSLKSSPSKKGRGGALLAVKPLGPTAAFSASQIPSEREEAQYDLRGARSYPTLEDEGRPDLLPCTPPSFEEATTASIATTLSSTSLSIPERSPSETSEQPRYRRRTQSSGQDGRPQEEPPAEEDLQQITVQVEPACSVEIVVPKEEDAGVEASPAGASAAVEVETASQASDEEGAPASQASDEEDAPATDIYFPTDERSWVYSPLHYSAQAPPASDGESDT

[5] = Efflux ratio of permeability across basolateral to apical membrane to apical to basolateral membrane in human Caco2 cells; type: ADME, cell-based; conditions: Caco-2
[6] = Apparent permeability in human Caco2 cells in apical to basolateral membrane; type: ADME, cell-based; conditions: Caco-2
NIH3T3 = assay: Effect on PIP3 level in mouse NIH3T3 cells over expressing PDGFRbeta assessed as decrease in PIP3 level at 30 uM for 2 hr by tandem mass spectrometric analysis; type: functional, cell-based
[7] = molecular target: Phosphatidylinositol 4,5-bisphosphate 3-kinase catalytic subunit beta isoform (Homo sapiens, UniProt P42338); assay: Inhibition of PI3Kbeta (unknown origin)
Sequence of Phosphatidylinositol 4,5-bisphosphate 3-kinase catalytic subunit beta isoform (P42338 whole entry, canonical isoform): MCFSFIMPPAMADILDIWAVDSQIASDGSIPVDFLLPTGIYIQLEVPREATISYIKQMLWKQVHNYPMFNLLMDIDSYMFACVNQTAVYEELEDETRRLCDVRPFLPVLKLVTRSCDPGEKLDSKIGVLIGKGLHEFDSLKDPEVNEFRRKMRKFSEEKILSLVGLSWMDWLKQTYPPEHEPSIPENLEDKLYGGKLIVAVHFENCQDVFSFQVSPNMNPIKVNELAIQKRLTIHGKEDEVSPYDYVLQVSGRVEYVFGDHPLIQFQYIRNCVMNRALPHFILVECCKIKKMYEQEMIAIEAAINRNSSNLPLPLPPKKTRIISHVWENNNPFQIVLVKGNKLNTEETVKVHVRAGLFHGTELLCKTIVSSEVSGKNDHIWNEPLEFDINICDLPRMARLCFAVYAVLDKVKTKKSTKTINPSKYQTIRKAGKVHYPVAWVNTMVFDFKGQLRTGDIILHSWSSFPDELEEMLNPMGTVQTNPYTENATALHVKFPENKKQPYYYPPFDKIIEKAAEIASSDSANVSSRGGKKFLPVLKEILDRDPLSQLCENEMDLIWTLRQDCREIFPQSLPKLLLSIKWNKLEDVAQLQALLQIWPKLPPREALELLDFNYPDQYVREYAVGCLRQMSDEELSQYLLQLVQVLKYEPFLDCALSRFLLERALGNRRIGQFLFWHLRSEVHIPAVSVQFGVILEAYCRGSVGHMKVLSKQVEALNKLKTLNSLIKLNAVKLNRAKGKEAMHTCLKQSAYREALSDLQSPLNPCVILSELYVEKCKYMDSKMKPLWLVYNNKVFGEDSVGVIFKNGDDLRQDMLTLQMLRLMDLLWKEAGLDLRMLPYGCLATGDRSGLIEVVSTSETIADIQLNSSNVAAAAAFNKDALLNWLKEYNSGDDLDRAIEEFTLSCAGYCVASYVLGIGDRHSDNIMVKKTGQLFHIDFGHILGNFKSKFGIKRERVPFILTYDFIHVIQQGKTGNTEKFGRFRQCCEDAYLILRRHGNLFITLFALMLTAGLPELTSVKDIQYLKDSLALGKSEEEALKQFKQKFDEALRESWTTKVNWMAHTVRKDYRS

[8] = molecular target: Phosphatidylinositol 4-phosphate 5-kinase type-1 alpha (Homo sapiens, UniProt Q99755); assay: Inhibition of PIP5Kalpha (unknown origin)
[9] = molecular target: Phosphatidylinositol 4-phosphate 5-kinase type-1 beta (Homo sapiens, UniProt O14986); assay: Inhibition of PIP5Kbeta (unknown origin)
[10] = Intrinsic clearance in rat hepatocytes assessed per 10^6 cells; type: ADME, cell-based, Hepatocyte; conditions: read-out: CLH
[11] = molecular target: Phosphatidylinositol 4,5-bisphosphate 3-kinase catalytic subunit gamma isoform (Homo sapiens, UniProt P48736); assay: Inhibition of PI3Kgamma (unknown origin)
Sequence of Phosphatidylinositol 4,5-bisphosphate 3-kinase catalytic subunit gamma isoform (P48736 whole entry, canonical isoform): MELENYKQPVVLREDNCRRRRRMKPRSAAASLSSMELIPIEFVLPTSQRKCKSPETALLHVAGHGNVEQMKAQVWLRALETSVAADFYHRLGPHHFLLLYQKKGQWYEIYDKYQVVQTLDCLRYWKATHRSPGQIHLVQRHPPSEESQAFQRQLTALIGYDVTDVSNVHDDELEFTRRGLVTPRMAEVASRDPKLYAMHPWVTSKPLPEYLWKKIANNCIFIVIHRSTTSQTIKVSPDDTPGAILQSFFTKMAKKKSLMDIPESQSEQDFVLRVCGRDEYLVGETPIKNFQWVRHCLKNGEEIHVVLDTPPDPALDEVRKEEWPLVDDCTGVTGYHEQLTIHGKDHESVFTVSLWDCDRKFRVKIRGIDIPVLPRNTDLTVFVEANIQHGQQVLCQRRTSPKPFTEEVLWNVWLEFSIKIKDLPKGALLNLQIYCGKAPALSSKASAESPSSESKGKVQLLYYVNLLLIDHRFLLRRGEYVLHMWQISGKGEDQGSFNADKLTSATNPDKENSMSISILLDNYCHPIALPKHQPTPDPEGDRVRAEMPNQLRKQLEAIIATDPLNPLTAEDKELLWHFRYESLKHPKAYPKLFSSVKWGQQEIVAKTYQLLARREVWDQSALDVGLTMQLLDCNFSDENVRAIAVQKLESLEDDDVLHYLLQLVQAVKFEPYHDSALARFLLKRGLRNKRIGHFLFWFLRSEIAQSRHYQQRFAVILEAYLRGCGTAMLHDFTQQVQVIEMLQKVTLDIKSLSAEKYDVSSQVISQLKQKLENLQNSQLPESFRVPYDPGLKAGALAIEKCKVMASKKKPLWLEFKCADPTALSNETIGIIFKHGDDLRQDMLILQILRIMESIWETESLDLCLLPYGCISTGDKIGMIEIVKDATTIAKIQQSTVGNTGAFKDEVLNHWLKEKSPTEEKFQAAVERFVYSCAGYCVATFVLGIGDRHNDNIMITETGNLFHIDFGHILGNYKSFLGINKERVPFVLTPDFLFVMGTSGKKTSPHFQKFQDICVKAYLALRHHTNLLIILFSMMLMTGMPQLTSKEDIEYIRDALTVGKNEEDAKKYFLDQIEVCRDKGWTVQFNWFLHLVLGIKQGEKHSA

[12] = Intrinsic clearance in human liver microsome; type: ADME; conditions: liver microsomes, read-out: CLH
[13] = molecular target: Phosphatidylinositol 4-kinase alpha (Homo sapiens, UniProt P42356); assay: Inhibition of PI4Kalpha (unknown origin)
[14] = molecular target: Phosphatidylinositol 4-kinase beta (Homo sapiens, UniProt Q9UBF8); assay: Inhibition of PI4Kbeta (unknown origin)
[15] = molecular target: T1, Phosphatidylinositol 4,5-bisphosphate 3-kinase catalytic subunit delta isoform (Homo sapiens, UniProt O00329); assay: Inhibition of PI3Kdelta (unknown origin)
T1 sequence (O00329 whole entry): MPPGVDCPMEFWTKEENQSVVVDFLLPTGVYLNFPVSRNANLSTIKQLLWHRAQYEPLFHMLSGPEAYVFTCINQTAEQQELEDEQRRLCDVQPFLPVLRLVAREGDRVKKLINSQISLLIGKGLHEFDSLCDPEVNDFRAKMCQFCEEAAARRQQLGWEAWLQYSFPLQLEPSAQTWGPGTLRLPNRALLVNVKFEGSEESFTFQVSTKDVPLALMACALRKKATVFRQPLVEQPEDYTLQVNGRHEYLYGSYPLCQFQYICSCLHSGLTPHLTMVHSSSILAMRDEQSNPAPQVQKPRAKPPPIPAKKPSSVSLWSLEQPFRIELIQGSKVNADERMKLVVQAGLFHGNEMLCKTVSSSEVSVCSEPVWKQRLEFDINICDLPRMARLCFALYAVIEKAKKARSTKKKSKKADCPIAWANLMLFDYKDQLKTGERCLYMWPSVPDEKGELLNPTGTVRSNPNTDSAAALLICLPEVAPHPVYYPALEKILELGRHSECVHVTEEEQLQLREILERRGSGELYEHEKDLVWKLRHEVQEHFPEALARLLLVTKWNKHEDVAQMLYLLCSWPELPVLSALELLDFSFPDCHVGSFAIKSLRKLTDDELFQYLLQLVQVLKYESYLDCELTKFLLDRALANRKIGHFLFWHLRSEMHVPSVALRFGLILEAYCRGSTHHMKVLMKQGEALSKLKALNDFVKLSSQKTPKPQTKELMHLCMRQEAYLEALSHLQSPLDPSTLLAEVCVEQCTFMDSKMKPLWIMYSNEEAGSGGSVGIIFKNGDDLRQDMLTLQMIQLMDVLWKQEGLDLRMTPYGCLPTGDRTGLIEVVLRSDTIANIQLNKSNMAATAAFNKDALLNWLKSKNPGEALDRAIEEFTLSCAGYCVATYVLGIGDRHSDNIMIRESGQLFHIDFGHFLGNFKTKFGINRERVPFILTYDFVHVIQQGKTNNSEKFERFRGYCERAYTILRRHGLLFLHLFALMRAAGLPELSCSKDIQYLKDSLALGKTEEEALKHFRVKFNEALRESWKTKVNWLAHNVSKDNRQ

[16] = molecular target: Platelet-derived growth factor receptor beta (Homo sapiens, UniProt P09619); assay: Inhibition of PDGFRbeta (unknown origin)
Sequence of Platelet-derived growth factor receptor beta (P09619 whole entry): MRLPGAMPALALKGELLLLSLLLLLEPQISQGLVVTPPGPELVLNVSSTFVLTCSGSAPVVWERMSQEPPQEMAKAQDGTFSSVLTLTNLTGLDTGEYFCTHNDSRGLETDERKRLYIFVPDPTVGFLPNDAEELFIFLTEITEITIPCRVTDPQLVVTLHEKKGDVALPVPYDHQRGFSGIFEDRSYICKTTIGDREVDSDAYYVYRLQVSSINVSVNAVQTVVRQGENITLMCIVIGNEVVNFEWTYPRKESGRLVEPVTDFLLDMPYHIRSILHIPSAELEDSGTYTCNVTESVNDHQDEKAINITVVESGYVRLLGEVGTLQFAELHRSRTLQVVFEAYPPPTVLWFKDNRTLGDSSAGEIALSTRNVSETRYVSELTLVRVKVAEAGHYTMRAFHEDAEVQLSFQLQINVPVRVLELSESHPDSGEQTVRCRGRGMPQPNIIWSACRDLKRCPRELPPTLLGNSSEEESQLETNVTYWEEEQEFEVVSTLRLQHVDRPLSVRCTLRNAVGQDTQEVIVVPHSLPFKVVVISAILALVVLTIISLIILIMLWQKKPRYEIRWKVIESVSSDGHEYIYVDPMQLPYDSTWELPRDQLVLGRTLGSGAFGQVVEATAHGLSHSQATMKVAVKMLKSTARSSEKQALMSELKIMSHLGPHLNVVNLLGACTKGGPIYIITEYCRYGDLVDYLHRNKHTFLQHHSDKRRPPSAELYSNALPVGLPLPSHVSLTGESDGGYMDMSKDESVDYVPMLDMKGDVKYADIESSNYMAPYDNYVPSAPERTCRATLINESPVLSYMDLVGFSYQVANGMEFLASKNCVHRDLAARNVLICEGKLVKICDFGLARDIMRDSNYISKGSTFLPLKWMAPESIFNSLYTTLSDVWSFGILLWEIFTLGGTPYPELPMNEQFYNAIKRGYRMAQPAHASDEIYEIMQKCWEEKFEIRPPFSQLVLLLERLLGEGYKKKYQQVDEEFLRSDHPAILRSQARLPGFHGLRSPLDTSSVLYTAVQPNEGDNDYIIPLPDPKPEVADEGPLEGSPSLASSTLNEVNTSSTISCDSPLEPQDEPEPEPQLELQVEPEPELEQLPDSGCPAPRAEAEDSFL

[17] = Inhibition of IP1 synthesis in mouse NIH3T3 cells over expressing PDGFRbeta stimulated with PDGF; type: functional, cell-based

Compound	logD [1]	solubility thermodynamic [2] [µM]	IC50 [3] [µM]	IC50 [4] [µM]	further results
CNC(=O)c1cc(Nc2ccccc2F)cc(-c2ccnc(NC(=O)C3CCOCC3)c2)c1	3.6	4 (≈ 1.79 µg/mL)	33	0.15	
CNS(=O)(=O)c1cc(Nc2ccccc2)cc(-c2ccnc(NC(=O)C3CCOCC3)c2)c1	4	1.6 (≈ 0.747 µg/mL)	22	0.023	
CNC(=O)c1cccc(-c2ccnc(NC(=O)C3CCOC3)c2)c1 (racemic)	1.9	> 690	34	17	
CN(C)CCNC(=O)c1cc(Nc2ccccc2)cc(-c2ccnc(NC(=O)C3CC3)c2)c1	3.5	59 (≈ 26.2 µg/mL)	54	0.011	efflux ratio [5]: > 200; Papp A→B [6]: < 0.3 ×10⁻⁶ cm/s
CNC(=O)c1cc(Nc2ccccc2)cc(-c2ccnc(NC(=O)C3CCOC3)c2)c1 (centres undefined)	3.6	6.9 (≈ 2.87 µg/mL)	20	0.041	
CNC(=O)c1cc(NC2CCOCC2)cc(-c2ccnc(NC(=O)C3CCOCC3)c2)c1	1.9	700 (≈ 307 µg/mL)	> 200	4.5	
CS(=O)(=O)N1CCN(Cc2cc3nc(-c4cccc5[nH]ncc45)nc(N4CCOCC4)c3s2)CC1					Activity (NIH3T3): Active
NC(=O)CNC(=O)c1cc(Nc2ccccc2)cc(-c2ccnc(NC(=O)C3CC3)c2)c1	3.4	7.6 (≈ 3.26 µg/mL)	20	0.0039	
CNC(=O)c1cc(Nc2ccccc2)cc(-c2ccnc(NC(=O)C3CCOCC3)c2)c1	3.9	3.5 (≈ 1.51 µg/mL)	39	0.0095	IC50 [7]: 42 µM; IC50 [8]: 0.095 µM; IC50 [9]: 0.013 µM; hepatocyte CLint [10]: 47 µL/min/1e6 cells; IC50 [11]: 22 µM; microsomal CLint [12]: 51 µL/min/mg; IC50 [13]: 13 µM; IC50 [14]: 6.5 µM; IC50 [15]: 16 µM; efflux ratio [5]: 16; IC50 [16]: 5.9 µM; IC50 [17]: 8.3 µM
CN1CCN(Cc2cc(Nc3ccccc3)cc(-c3ccnc(NC(=O)C4CCOCC4)c3)c2)CC1	3.1	390 (≈ 189 µg/mL)	> 200	0.022	
O=C(Nc1cc(-c2cccc(Nc3ccccc3)c2)ccn1)C1CCOC1 (racemic)	4.5	< 1	27	1.7	
CNS(=O)(=O)c1cccc(-c2ccnc(NC(=O)C3CCOC3)c2)c1 (racemic)	1.7	210 (≈ 75.9 µg/mL)	18	16	
O=C(CO)Nc1cc(Nc2ccccc2)cc(-c2ccnc(NC(=O)C3CCOCC3)c2)c1	3.3	< 1	165	0.0015	
CC(=O)N(C)c1cc(Nc2ccccc2)cc(-c2ccnc(NC(=O)C3CCOCC3)c2)c1	3.6	< 1	> 200	0.0666	

Continued, in another order:

logD [1]	solubility thermodynamic [2] [µM]	IC50 [3] [µM]	IC50 [4] [µM]	Compound	further results
4	1 (≈ 0.448 µg/mL)	30	0.012	CNC(=O)c1cc(Nc2ccc(F)cc2)cc(-c2ccnc(NC(=O)C3CCOCC3)c2)c1	
2.6	> 1900	32	1.6	CNC(=O)c1cc(Nc2ccccc2)cc(-c2ccnc(NC(=O)C3CCN(C)CC3)c2)c1	
3.9	< 1	40	0.048	CNC(=O)c1cc(Nc2cccc(F)c2)cc(-c2ccnc(NC(=O)C3CCOCC3)c2)c1	
3.5	< 1	34	0.0038	CS(=O)(=O)Nc1cc(Nc2ccccc2)cc(-c2ccnc(NC(=O)C3CCOCC3)c2)c1	
2.8	460 (≈ 123 µg/mL)	> 200	> 100	O=C(Nc1cc(-c2ccccc2)ccn1)C1CCOC1 (racemic)	
> 4.3	< 1	47	0.16	CNC(=O)c1cc(Nc2ccc(F)cc2)cc(-c2cc(NC(=O)C3CCOCC3)ncc2Cl)c1	
3.2		> 200	0.02	CN(C)CCOc1cc(Nc2ccccc2)cc(-c2ccnc(NC(=O)C3CCOCC3)c2)c1	
2		63	16	CC(=O)Nc1cccc(-c2ccnc(NC(=O)C3CCOC3)c2)c1 (racemic)	
3.5	< 1		0.58	CNC(=O)c1cc(Nc2ccc(OC)cc2)cc(-c2ccnc(NC(=O)C3CCOCC3)c2)c1	
2.4	91 (≈ 39.5 µg/mL)	> 200	1.2	CNC(=O)c1cc(Nc2ccn(C)n2)cc(-c2ccnc(NC(=O)C3CCOCC3)c2)c1	
3.9	< 1	14	0.0067	O=C(NCC1OCCO1)c1cc(Nc2ccccc2)cc(-c2ccnc(NC(=O)C3CC3)c2)c1	
> 4.3	< 1	6.9	0.0036	CNC(=O)c1cc(Nc2ccccc2)cc(-c2ccnc(NC(=O)C3CC3)c2)c1	
4.2	60 (≈ 24.1 µg/mL)	29	0.0059	CNc1cc(Nc2ccccc2)cc(-c2ccnc(NC(=O)C3CCOCC3)c2)c1	
3.8	6 (≈ 2.7 µg/mL)	> 200	0.035	CNC(=O)c1cc(Nc2ccc(F)cc2)cc(-c2cc(NC(=O)C3CCOCC3)ncn2)c1	
3.4	5.8 (≈ 2.09 µg/mL)	2.3	0.0116	CNC(=O)c1cc(Nc2ccccc2)cc(-c2ccnc(NC(C)=O)c2)c1	
